Experimental findings from patent US10285989B2, “Pyrimidinone amide compounds as PDE2 inhibitors” (Merck Sharp & Dohme Corp., priority 2015, dated 2019) are described below.

Like-named read-outs stand apart in the source and are kept apart here.

In assay [1] the target is Rhesus PDE2A3 (Macaca mulatta, UniProt B3VTJ2). Description: PDE2 fluorescence polarization (IMAP FP) inhibition assay, rhesus PDE2A3. The assay is classed as biochemical, rhesus macaque. The procedure:
A Labcyte Echo 555 (Labcyte, Sunnyvale, Calif.) is used to dispense 200 nL from each well of the titration plate to the 384 well assay plate. Ten microliters of a solution of enzyme (1/2000 final dilution from aliquots; sufficient to produce 20% substrate conversion) was added to the assay plate. Next 10 uL of a separate solution of the substrate FAM-labeled cAMP (50 nM final concentration product # R^7506 from Molecular Devices) and the activator cGMP (1 uM final concentration), prepared in the assay buffer (10 mM Tris HCl, pH 7.2, 10 mM MgCl2, 0.05% NaN3 0.01% Tween-20, and 1 mM DTT) was added to the assay plate and shaken to mix. The reaction is allowed to proceed at room temperature for 60 minutes. A binding solution is then made from the kit components, comprised of 80% Solution A, 20% Solution B and binding reagent at a volume of 1/600 the total binding solution. The enzymatic reaction is stopped by addition of 60 μL of the binding solution to each well of the assay plates and the plates are sealed and shaken for 30 seconds. The plate was incubated at room temperature for at least one hour prior to determining the fluorescence polarization (FP). The parallel and perpendicular fluorescence of each well of the plate was measured using a Tecan Genios Pro plate reader (Tecan, Switzerland) or Perkin Elmer EnVision™ plate reader (Waltham, Mass.). Fluorescence polarization (mP) was calculated from the parallel (S) and perpendicular (P) fluorescence of each sample well and the analogous values for the median control well, containing only substrate (So and Po), using the following equation: Polarization (mP)=1000*(S/So−P/Po)/(S/So+P/Po).
Dose-inhibition profiles for each compound were characterized by fitting the mP data to a four-parameter equation given below.
An apparent (KM) for FAM-labeled cAMP of ˜10 uM was used.

Assay [2] deals with human PDE2A1 (Homo sapiens (Human), UniProt O00408). Description: PDE2 IMAP FP inhibition assay, human PDE2A1 (selectivity panel format). The assay is classed as biochemical. In a few lines: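 IMAP fluorescence polarization assay; substrate 50 nM FAM-cAMP with 1000 nM cGMP, enzyme at ~20% conversion, in 10 mM Tris pH 7.2, 10 mM MgCl2, 1 mM DTT, 0.01% Tween-20. 60 min room temperature, stopped with IMAP binding reagent, 1 h, then parallel/perpendicular fluorescence read.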

[3] abbreviates: Lab A, read-out: Rhesus PDE2 Ki (nM) - Lab A.
Setting [4] is: Lab A, read-out: Human PDE2 Ki (nM) - Lab A.
[5] abbreviates: Lab B, read-out: Rhesus PDE2 Ki (nM) - Lab B.
The mark [6] stands for this setting: Lab B, read-out: Human PDE2 Ki (nM) - Lab B.

Sequence of Rhesus PDE2A3 (B3VTJ2 1-941): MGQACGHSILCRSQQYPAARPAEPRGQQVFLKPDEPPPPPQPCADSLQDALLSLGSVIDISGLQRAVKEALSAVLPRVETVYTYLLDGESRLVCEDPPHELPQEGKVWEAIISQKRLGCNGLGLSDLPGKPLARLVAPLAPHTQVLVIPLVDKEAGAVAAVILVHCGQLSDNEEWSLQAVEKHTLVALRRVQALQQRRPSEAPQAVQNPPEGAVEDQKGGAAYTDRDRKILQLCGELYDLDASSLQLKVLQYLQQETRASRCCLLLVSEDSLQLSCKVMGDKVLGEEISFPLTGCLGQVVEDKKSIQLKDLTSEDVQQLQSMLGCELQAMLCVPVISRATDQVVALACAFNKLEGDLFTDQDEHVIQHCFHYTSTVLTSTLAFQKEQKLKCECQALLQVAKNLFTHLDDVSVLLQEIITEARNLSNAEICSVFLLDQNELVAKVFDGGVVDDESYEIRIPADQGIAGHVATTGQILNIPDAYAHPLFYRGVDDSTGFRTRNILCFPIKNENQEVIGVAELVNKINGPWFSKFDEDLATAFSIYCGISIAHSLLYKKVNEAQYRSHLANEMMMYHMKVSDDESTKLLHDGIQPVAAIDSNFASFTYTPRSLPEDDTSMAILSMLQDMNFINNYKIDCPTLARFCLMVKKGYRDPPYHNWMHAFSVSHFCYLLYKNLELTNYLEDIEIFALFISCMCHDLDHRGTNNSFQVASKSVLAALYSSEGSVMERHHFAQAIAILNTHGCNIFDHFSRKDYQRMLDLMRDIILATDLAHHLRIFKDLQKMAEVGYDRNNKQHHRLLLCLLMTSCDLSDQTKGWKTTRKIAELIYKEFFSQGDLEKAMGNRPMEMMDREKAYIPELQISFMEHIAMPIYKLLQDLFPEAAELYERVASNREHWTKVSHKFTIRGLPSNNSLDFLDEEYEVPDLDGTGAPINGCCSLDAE
Sequence of human PDE2A1 (O00408 other isoform, or with tags, fused parts or gaps): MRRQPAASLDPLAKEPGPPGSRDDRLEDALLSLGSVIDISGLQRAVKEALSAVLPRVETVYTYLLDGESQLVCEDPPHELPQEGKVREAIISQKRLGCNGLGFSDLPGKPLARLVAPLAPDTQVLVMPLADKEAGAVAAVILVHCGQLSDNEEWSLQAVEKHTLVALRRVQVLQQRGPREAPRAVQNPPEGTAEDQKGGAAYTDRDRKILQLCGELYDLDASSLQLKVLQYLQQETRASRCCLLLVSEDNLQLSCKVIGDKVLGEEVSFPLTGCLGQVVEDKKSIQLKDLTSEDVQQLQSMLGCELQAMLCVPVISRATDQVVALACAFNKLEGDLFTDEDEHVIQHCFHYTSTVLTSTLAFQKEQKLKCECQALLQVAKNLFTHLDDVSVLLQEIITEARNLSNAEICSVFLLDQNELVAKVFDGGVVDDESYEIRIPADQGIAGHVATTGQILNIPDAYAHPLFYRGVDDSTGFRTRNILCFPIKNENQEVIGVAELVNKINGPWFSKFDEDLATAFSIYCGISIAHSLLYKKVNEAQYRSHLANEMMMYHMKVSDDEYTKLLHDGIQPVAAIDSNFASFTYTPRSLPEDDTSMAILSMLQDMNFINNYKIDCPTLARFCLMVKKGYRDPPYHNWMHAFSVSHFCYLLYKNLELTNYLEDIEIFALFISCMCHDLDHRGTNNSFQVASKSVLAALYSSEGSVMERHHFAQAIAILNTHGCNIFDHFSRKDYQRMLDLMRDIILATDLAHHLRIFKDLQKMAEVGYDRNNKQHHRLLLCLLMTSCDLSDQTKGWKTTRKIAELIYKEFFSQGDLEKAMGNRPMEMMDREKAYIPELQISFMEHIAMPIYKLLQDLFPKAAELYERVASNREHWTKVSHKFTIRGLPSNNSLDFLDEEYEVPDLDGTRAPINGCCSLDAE

Consider `C[C@@H](NC(=O)c1cc(=O)[nH]c(Nc2ccccn2)n1)c1ccc(C(F)(F)F)cc1` [Example 136, 6-oxo-2-(pyridin-2-ylamino)-N-{(1R)-1-[4-(trifluoromethyl)phenyl]ethyl}-1,6-dihydropyrimidine-4-carboxamide], for which the inhibition constant (Ki) stood at 610 nM in assay [1] (setting [3]) and 491 nM in assay [2] (setting [4]).
For `C[C@@H](NC(=O)c1cc(=O)[nH]c(NC2CCCC2)n1)c1ccc(C(F)(F)F)cc1` [Example 139, 2-(cyclopentylamino)-6-oxo-N-{(1R)-1-[4-(trifluoromethyl)phenyl]ethyl}-1,6-dihydropyrimidine-4-carboxamide], in that order: 109 nM and 56 nM.
Consider `C[C@@H](NC(=O)c1cc(=O)[nH]c(N(C)C)n1)c1cc(F)c(C(F)(F)F)cc1F` [Example 36, N-{(1R)-1-[2,5-difluoro-4-(trifluoromethyl)phenyl]ethyl}-2-(dimethylamino)-6-oxo-1,6-dihydropyrimidine-4-carboxamide], for which the inhibition constant (Ki) turned out to be 4.9 nM in assay [1] (setting [5]) and 7.7 nM in assay [2] (setting [6]).
`CCN(C)c1nc(C(=O)N[C@H](C)c2ccc(C(F)(F)F)cc2)cc(=O)[nH]1` [Example 141, 2-[ethyl(methyl)amino]-6-oxo-N-{(1R)-1-[4-(trifluoromethyl)phenyl]ethyl}-1,6-dihydropyrimidine-4-carboxamide]: the inhibition constant (Ki) came to 10.3 nM in assay [1] (setting [3]) and 6 nM in assay [2] (setting [4]).
Take `CC(C)[C@@H](NC(=O)c1cc(=O)[nH]c(N(C)C)n1)c1ccc(OC(F)(F)F)c(Cl)c1` [Example 86, N-{(1R)-1-[3-chloro-4-(trifluoromethoxy)phenyl]-2-methylpropyl}-2-(dimethylamino)-6-oxo-1,6-dihydropyrimidine-4-carboxamide]: the Ki in assay [1] (setting [3]) was found to be 0.54 nM; in assay [1] (setting [5]), 2.1 nM; in assay [2] (setting [6]), 1.7 nM.
For `CC(C)[C@@H](NC(=O)c1cc(=O)[nH]c(N(C)C)n1)c1ccc(OC(F)(F)F)c(F)c1` [Example 149, 2-(dimethylamino)-N-{(1R)-1-[3-fluoro-4-(trifluoro-methoxy)phenyl]-2-methylpropyl}-6-oxo-1,6-dihydropyrimidine-4-carboxamide], in that order: 0.48 nM, 0.51 nM and 0.42 nM.
For `CC[C@@H](NC(=O)c1cc(=O)[nH]c(N2CCCC2)n1)c1ccc(SC(F)(F)F)c(F)c1` [Example 29, N-[(1R)-1-{3-fluoro-4-[(trifluoromethyl)sulfanyl]phenyl}propyl]-6-oxo-2-pyrrolidin-1-yl-1,6-dihydropyrimidine-4-carboxamide], the values for the inhibitory constant (Ki) in assay [1] (setting [3]) and in assay [2] (setting [4]) were 0.56 nM and 0.22 nM, respectively.
As to `C[C@@H](NC(=O)c1cc(=O)[nH]c(N2CC[C@@H](F)C2)n1)c1ccc(C(F)(F)F)cc1` [Example 11, 2-((R)-3-fluoropyrrolidin-1-yl)-6-oxo-N—((R)-1-(4-(trifluoromethyl)phenyl)ethyl)-1,6-dihydropyrimidine-4-carboxamide], the values for the Ki in assay [1] (setting [3]) and in assay [2] (setting [4]) were 30 nM and 18 nM, respectively.
With `CN(C)c1nc(C(=O)NC2(c3ccc(C(C)(C)C)cc3)CC2)cc(=O)[nH]1` [Example 46, N-[1-(4-tert-butylphenyl)cyclopropyl]-2-(dimethylamino)-6-oxo-1,6-dihydropyrimidine-4-carboxamide], the inhibition constant Ki in assay [1] (setting [5]) was 3.4 nM; in assay [2] (setting [6]), 3.6 nM.
Consider `O=C(N[C@@H](c1ccc(OC(F)(F)F)c(F)c1)C1CC1)c1cc(=O)[nH]c(N2CCCC2)n1` [Example 25, N-{(R)-cyclopropyl[3-fluoro-4-(trifluoromethoxy)phenyl]methyl}-6-oxo-2-pyrrolidin-1-yl-1,6-dihydropyrimidine-4-carboxamide], for which the Ki in assay [1] (setting [3]) stood at 0.85 nM; in assay [2] (setting [4]), 0.37 nM.
For `C[C@@H](NC(=O)c1cc(=O)[nH]c(N2CCOCC2)n1)c1ccc(C(F)(F)F)cc1` [Example 132, 2-morpholin-4-yl-6-oxo-N-{(1R)-1-[4-(trifluoromethyl)phenyl]ethyl}-1,6-dihydropyrimidine-4-carboxamide], in that order: 60 nM and 30 nM.
Regarding `COc1ccc(Oc2nc(C(=O)N[C@H](C)c3ccc(C(F)(F)F)cc3)cc(=O)[nH]2)cc1OC` [Example 22, (R)-2-(3,4-dimethoxyphenoxy)-6-oxo-N-(1-(4-(trifluoromethyl)phenyl)ethyl)-1,6-dihydropyrimidine-4-carboxamide], the Ki in assay [1] (setting [3]) was found to be 727 nM; in assay [2] (setting [4]), 988 nM.
For `CN(C)c1nc(C(=O)N[C@@H](c2ccc(OC(F)(F)F)c(Cl)c2)C2CC2)cc(=O)[nH]1` [Example 85, N-[(R)-[3-chloro-4-(trifluoromethoxy)phenyl](cyclopropyl)methyl]-2-(dimethylamino)-6-oxo-1,6-dihydropyrimidine-4-carboxamide], the values for the Ki in assay [1] (setting [3]), in assay [1] (setting [5]) and in assay [2] (setting [6]) were 2 nM, 4.9 nM and 3.6 nM, respectively.
`COCCCOc1nc(C(=O)NC(C)c2ccc(C(F)(F)F)cc2)cc(=O)[nH]1` (stereo not shown) [Example 179, 2-(3-methoxypropoxy)-6-oxo-N-{1-[4-(trifluoromethyl)phenyl]ethyl}-1,6-dihydropyrimidine-4-carboxamide]: the inhibitory constant (Ki) was 108 nM in assay [1] (setting [3]) and 75 nM in assay [2] (setting [4]).
For `C[C@@H](NC(=O)c1cc(=O)[nH]c(N2CC(F)(F)C2)n1)c1ccc(C(F)(F)F)cc1` [Example 24, 2-(3,3-Difluoroazetidin-1-yl)-6-oxo-N-{(1R)-1-[4-(trifluoromethyl)phenyl]ethyl}-1,6-dihydropyrimidine-4-carboxamide], in that order: 79 nM and 40 nM.
For `Cc1ncc2c(n1)CN(c1nc(C(=O)N[C@H](C)c3ccc(C(F)(F)F)cc3)cc(=O)[nH]1)C2` [Example 159, 2-(2-methyl-5,7-dihydro-6H-pyrrolo[3,4-d]pyrimidin-6-yl)-6-oxo-N-{(1R)-1-[4-(trifluoromethyl)phenyl]ethyl}-1,6-dihydropyrimidine-4-carboxamide], in that order: 18 nM and 11 nM.
As for `C[C@@H](NC(=O)c1cc(=O)[nH]c(N(C)C)n1)c1ccc(C(F)(F)F)c(F)c1F` [Example 84, N-{(1R)-1-[2,3-difluoro-4-(trifluoromethyl)phenyl]ethyl}-2-(dimethylamino)-6-oxo-1,6-dihydropyrimidine-4-carboxamide], the Ki in assay [1] (setting [5]) came out at 3.5 nM; in assay [2] (setting [6]) it was 2.5 nM.
For `Cc1cc(C(F)(F)F)ccc1C(C)(C)NC(=O)c1cc(=O)[nH]c(N(C)C)n1` [Example 78, 2-(dimethylamino)-N-{1-methyl-1-[2-methyl-4-(trifluoromethyl)phenyl]ethyl}-6-oxo-1,6-dihydropyrimidine-4-carboxamide], in that order: 2.3 nM and 2.2 nM.
For `C[C@H](NC(=O)c1cc(=O)[nH]c(N(C)C)n1)c1ccc(S(F)(F)(F)(F)F)cc1F` [Example 117, (S)-2-(dimethylamino)-N-(1-(4-(pentafluorothio)-2-fluorophenyl)ethyl)-6-oxo-1,6-dihydropy-rimidine-4-carboxamide], in that order: 2.5 nM and 2.1 nM.
For `CC(C)C(C)(NC(=O)c1cc(=O)[nH]c(N(C)C)n1)c1ccc(S(F)(F)(F)(F)F)cc1` (stereo not shown) [Example 39, 2-(dimethylamino)-N-{1,2-dimethyl-1-[4-(pentafluoro-λ^6-sulfanyl)phenyl]propyl}-6-oxo-1,6-dihydropyrimidine-4-carboxamide], in that order: 8.7 nM and 12 nM.
`C[C@@H](NC(=O)c1cc(=O)[nH]c(N(C)C)n1)c1ccc(OC(F)(F)F)cc1F` [Example 83, 2-(dimethylamino)-N-{(1R)-1-[2-fluoro-4-(trifluoromethoxy)phenyl]ethyl}-6-oxo-1,6-dihydropyrimidine-4-carboxamide]: the Ki in assay [1] (setting [5]) turned out to be 2.3 nM; in assay [2] (setting [6]) it was 2.4 nM.
For `CN(C)c1nc(C(=O)NC(C)(C)c2ccc(C(F)(F)F)cc2F)cc(=O)[nH]1` [Example 82, 2-(dimethylamino)-N-{1-[2-fluoro-4-(trifluoromethyl)phenyl]-1-methylethyl}-6-oxo-1,6-dihydropyrimidine-4-carboxamide], in that order: 2 nM and 2.5 nM.
Turning to `CN(C)c1nc(C(=O)NC(c2ccc(C3(C)CC3)c(F)c2)C(C)(C)C)cc(=O)[nH]1` (single isomer, unassigned) [Example 124, (R)- or (S)-2-(dimethylamino)-N-{1-[3-fluoro-4-(1-methylcyclopropyl)phenyl]-2,2-dimethylpropyl}-6-oxo-1,6-dihydropyrimidine-4-carboxamide], the inhibitory constant (Ki) in assay [1] (setting [5]) is 0.45 nM; in assay [2] (setting [6]), 0.34 nM.
